# Measurements reported in patent publication US8962634B2, “4-amino-3-arylamino-6-arylpyrazolo[3,4-d) pyrimidine derivatives, methods for their preparation and their use as antiviral agents” (priority 2006, dated 2015).
# Read-outs that look alike come from different tables or passages of the source.
# Key:
# HeLa cells = assay: Tolerance in the cell culture: cytotoxicity in HeLa cells (CC50); format: cell-based; conditions: 72 h incubation
# Protocol: (§1) 1×10^4 HeLa cells (DSMZ, ACC 57) were seeded per microtestplate cavity in 0.2 ml culture medium RPMI 1640. The microtiter plates were incubated without the test substance according to standard (at 37° C., 5% CO2 and ca. 95% relative humidity) for 48 hours under physiological conditions to produce subconfluent monolayers. Afterwards, dilution stages of the test substances were added to the monolayers and incubated under physiological conditions during a period of 72 h. At the end of the time of incubation, the extinction of all cavities of the microtiterplates were measured at 660 nm by means of a microplate reader (Sunrise, TECAN) after glutaraldehyd fixation and methylen-blue dye and the CC50 was determined by the analysis program “Magellan”. As the pre-incubation of the HeLa cells already leads to the formation of a subconfluent cell lawn, the cytolysis during the subsequent incubation with the test substance is decisive for the analysis. GMK cells were seemed in microtiter plates and preincubated at 5% CO2, 37° C. and with a humidity of 95% in the incubator during 48 h for producing a cell lawn (Schmidtke M et al.: J Virol Meth, 2001, 95(1-2), 133-143). Then, the medium was removed and the substances were deposited in different concentrations (100 μl/well/concentration, dilution factor 2) in the culture medium. 100 μl of the medium was used for each of the control value determinations (six untreated cell controls). 72 h after the substance application and incubation, the cells were dyed with crystal-violet/methanol. After the extraction of the dye, the optical density (OD) of the individual cavities were measured in a plate photometer of the Dynatech company (550/630 nm) and compared with the mean value of the cell controls. The mean value of the controls was assumed to be 100 %. By means of the mean dose effect curves the 50% cytotoxic concentrations (CC50) were measured by applying the linear interpolation method.
# GMK cells = assay: Tolerance in the cell culture: cytotoxicity in GMK cells (CC50); format: cell-based; conditions: 72 h incubation
# Protocol: as §1
# [1] = system: coxsackievirus B3 Nancy (CVB3 Nancy); assay: Cytopathic effect (cpE)-inhibition test in HeLa cells, CVB3 Nancy; format: cell-based; conditions: 24 h after infection; for IC50: Enterovirus B, read-out: 50% inhibition concentration CVB3 Nancy
# Protocol: (§2) Cytopathic effect (cpE)-inhibition test with the international reference strain coxsackievirus B3 Nancy (CVB3 Nancy), human rhinovirus 2 and 8 (HRV2 and […]) in HeLa cells
# (§3) The replication of the viruses used in the test leads to the complete destruction of the host cells, a strong cytophatic effect (cpE). […] In the test, untreated and substance-treated compact cell lawns were infected with a virus dose that leads to a complete cpE in the untreated virus controls 24 h (CVB3 Nancy) or 72 h (HRV2 and HRV8) after the infection. At this point in time, the still adherent cells were fixed and dyed with a crystal-violet/formalin solution. The inhibition of the virus-induced cpE was quantified photometrically in a Dynatach plate reader after dye elution. The antiviral effect was calculated by comparing the optical densities of the substance-treated and untreated, virus-infected cells with the mean optical density of the cell controls that was assumed to be 100%. By means of the mean dose effect curves the 50% inhibition concentration was determined. Pleconaril was used as a control substance.
# [2] = system: human rhinovirus 2 (HRV2); assay: Cytopathic effect (cpE)-inhibition test in HeLa cells, HRV2; format: cell-based; conditions: for IC50: Rhinovirus A, read-out: 50% inhibition concentration HRV2
# Protocol: as §2, §3
# [3] = system: human rhinovirus 8 (HRV8); assay: Cytopathic effect (cpE)-inhibition test in HeLa cells, HRV8; format: cell-based; conditions: for IC50: Rhinovirus A, read-out: 50% inhibition concentration HRV8
# Protocol: as §2, §3
# [4] = Tolerance in the cell culture: cytotoxicity in HeLa cells (CC50); format: cell-based; conditions: human, repeated per virus line of the plaque reduction table, read-out: 50% zytotoxic concentration in HeLa cells (CC50)
# Protocol: as §1
# coxsackievirus B1 (CVB1) = assay: Plaque reduction test (PRT) in HeLa cells, CVB1; format: cell-based
# Protocol: (§4) Plaque reduction test (PRT) with the substance of example 1 and coxsackievirus B1, B2, B4, B5, B6 (CVB1, CVB2, CVB4, CVB5, CVB6)
# (§5) For performing the test, 2-3-days-old compact HeLa cell lawns were infected in 12-well-tissue culture plates with 50-80 plaque-forming units (PFU) (Schmidtke M et al.: J Virol Meth, 2001, 95(1-2), 133-143). Two non-infected cavities of the plate were used as cell controls (CC). After a virus adsorption at 37° C. during one hour the virus-containing supernatant was soaked off. The infected cells were covered with a test medium containing 0.4% agar without (virus controls) or with substance in non-zytotoxic concentrations (dilution factor 2, double determination per concentration) and incubated at 37° C. during 48 h. After the fixation and dyeing of the plates with crystal-violet formalin, the agar was removed and rinsed in flowing water. The number of the virus-induced plaques was counted via a light box and afterwards the proportional substance-induced plaque reduction was calculated. Three identical test approaches were performed and the concentration that leads to a 50% plaque reduction (IC50) was measured by using the calculated mean dose-effect-curve.
# coxsackievirus B2 (CVB2) = assay: Plaque reduction test (PRT) in HeLa cells, CVB2; format: cell-based
# Protocol: as §4, §5
# coxsackievirus B4 (CVB4) = assay: Plaque reduction test (PRT) in HeLa cells, CVB4; format: cell-based
# Protocol: as §4, §5
# coxsackievirus B5 (CVB5) = assay: Plaque reduction test (PRT) in HeLa cells, CVB5; format: cell-based
# Protocol: as §4, §5
# coxsackievirus B6 (CVB6) = assay: Plaque reduction test (PRT) in HeLa cells, CVB6; format: cell-based
# Protocol: as §4, §5
# mice = assay: Acute toxicity in the mouse, single oral administration; format: in vivo; conditions: for Number of dead/surviving mice: 5 mice; for substance concentration up to which all animals survived: administered orally once, mice; for tolerability after administering orally once: mouse, in vivo, po; for influence on general state of health, rectal temperature, body weight: up to 3.000 mg/kg orally once, three days observation
# Protocol: The acute toxicity of the substances of the examples 2 and 4 were determined in mice which were 4-5 weeks old (without strain designation). 1-2 drops TWIN-80 were added to a 1% aqueous carboxymethyl cellulose solution and this mixture was used to produce a substance suspension. 1500, 2000, 2500, 3000, 4000 or 5000 mg/kg of the substances of the examples 2 and 4 were administered orally to 5 mice, each amount once. On the following three days, the general state of health of the mice, the changes in their weight, their rectal temperatures and their survival rate were determined.
# [5] = HRV2, cpE inhibition, HeLa cells, 72 h after infection
# [6] = HRV8, cpE inhibition, HeLa cells, 72 h after infection
# [7] = cpE inhibition, HeLa cells, 72 h after infection
smiles,measurement,setting,value
"Nc1nc(-c2ccccc2)nc2[nH]nc(Nc3ccc(F)cc3)c12 [Example 6, 4-amino-3-(4-fluorophenyl)amino-6-phenylpyrazolo[3,4-d]pyrimidine]",50% cytotoxic concentration in HeLa cells,HeLa cells,44.3 µg/mL
same,50% cytotoxic concentration in GMK cells,GMK cells,>50 µg/mL
same,IC50,[1],0.03 µg/mL
same,IC50,[2]; [5],0.9 µg/mL
same,IC50,[3]; [6],2 µg/mL
same,melting point,,259 to 263 °C
"Nc1nc(-c2ccccc2)nc2[nH]nc(Nc3ccccc3)c12 [Example 1, 4-amino-3-phenylamino-6-phenylpyrazolo[3,4-d]pyrimidine]",CC50 at 72 h,[4],39.6 µg/mL
same,50% cytotoxic concentration in HeLa cells,HeLa cells,39.6 µg/mL
same,50% cytotoxic concentration in GMK cells,GMK cells,>50 µg/mL
same,IC50,[1],0.002 µg/mL
same,50% inhibition concentration HRV2,[2]; [7],ineffective
same,50% inhibition concentration HRV8,[3]; [7],ineffective
same,Selection index (SI) = CC50:IC50,coxsackievirus B1 (CVB1); CVB1,3.1
same,IC50,"coxsackievirus B1 (CVB1); Enterovirus B, HeLa, plaque reduction, CVB1, 48 h, read-out: 50% inhibition concentration in HeLa cells (IC50)",12.7 µg/mL
same,Selection index (SI) = CC50:IC50,coxsackievirus B2 (CVB2); CVB2,132
same,IC50,"coxsackievirus B2 (CVB2); Enterovirus B, HeLa, plaque reduction, CVB2, 48 h, read-out: 50% inhibition concentration in HeLa cells (IC50)",0.3 µg/mL
same,Selection index (SI) = CC50:IC50,coxsackievirus B4 (CVB4); CVB4,5.6
same,IC50,"coxsackievirus B4 (CVB4); Enterovirus B, HeLa, plaque reduction, CVB4, 48 h, read-out: 50% inhibition concentration in HeLa cells (IC50)",7.1 µg/mL
same,Selection index (SI) = CC50:IC50,coxsackievirus B5 (CVB5); CVB5,14.1
same,IC50,"coxsackievirus B5 (CVB5); Enterovirus B, HeLa, plaque reduction, CVB5, 48 h, read-out: 50% inhibition concentration in HeLa cells (IC50)",2.8 µg/mL
same,Selection index (SI) = CC50:IC50,coxsackievirus B6 (CVB6); CVB6,15.3
same,IC50,"coxsackievirus B6 (CVB6); Enterovirus B, HeLa, plaque reduction, CVB6, 48 h, read-out: 50% inhibition concentration in HeLa cells (IC50)",2.6 µg/mL
"Cc1cc(CCCOc2c(C)cc(-c3noc(C(F)(F)F)n3)cc2C)on1 [Pleconaril, reference compound]",50% inhibition concentration CVB3 Nancy,[1],ineffective
same,IC50,"[2]; HRV2, HeLa, 72 h",0.01 µg/mL
same,IC50,"[3]; HRV8, HeLa, 72 h",1.3 µg/mL
"Cc1cccc(Nc2n[nH]c3nc(-c4ccccc4)nc(N)c23)c1 [Example 3, 4-amino-3-(3-methylphenyl)amino-6-phenylpyrazolo[3,4-d]pyrimidine]",50% cytotoxic concentration in HeLa cells,HeLa cells,27.7 µg/mL
same,IC50,[1],0.02 µg/mL
same,IC50,[2]; [5],1.1 µg/mL
same,IC50,[3]; [6],1 µg/mL
same,melting point,,246 to 248 °C
"Nc1nc(-c2ccccc2)nc2[nH]nc(Nc3cccc(F)c3)c12 [Example 2, 4-amino-3-(3-fluorophenyl)amino-6-phenylpyrazolo[3,4-d]pyrimidine]",50% cytotoxic concentration in HeLa cells,HeLa cells,45.7 µg/mL
same,50% cytotoxic concentration in GMK cells,GMK cells,>50 µg/mL
same,IC50,[1],0.001 µg/mL
same,IC50,[2]; [5],4.1 µg/mL
same,IC50,[3]; [6],4.6 µg/mL
same,Number of dead/surviving mice,mice; 1500 mg/kg orally once,0/5
same,Number of dead/surviving mice,mice; 2000 mg/kg orally once,0/5
same,Number of dead/surviving mice,mice; 2500 mg/kg orally once,0/5
same,Number of dead/surviving mice,mice; 3000 mg/kg orally once,0/5
same,Number of dead/surviving mice,mice; 4000 mg/kg orally once,3/5
same,Number of dead/surviving mice,mice; 5000 mg/kg orally once,5/5
same,substance concentration up to which all animals survived,mice,3.000 mg/kg
same,tolerability after administering orally once,mice,very tolerable
same,"influence on general state of health, rectal temperature, body weight",mice,Neither the general state of health nor the rectal temperature nor the body weight was influenced
"Nc1nc(-c2ccccc2)nc2[nH]nc(Nc3ccc(Br)cc3)c12 [Example 5, 4-amino-3-(4-bromophenyl)amino-6-phenylpyrazolo[3,4-d]pyrimidine]",50% cytotoxic concentration in HeLa cells,HeLa cells,8.5 µg/mL
same,50% cytotoxic concentration in GMK cells,GMK cells,42.9 µg/mL
same,IC50,[1],0.04 µg/mL
same,IC50,[2]; [5],0.7 µg/mL
same,IC50,[3]; [6],1 µg/mL
same,melting point,,272 to 274 °C
"Cc1ccc(Nc2n[nH]c3nc(-c4ccccc4)nc(N)c23)cc1 [Example 4, 4-amino-3-(4-methylphenyl)amino-6-phenylpyrazolo[3,4-d]pyrimidine]",50% cytotoxic concentration in HeLa cells,HeLa cells,>50 µg/mL
same,50% cytotoxic concentration in GMK cells,GMK cells,>50 µg/mL
same,IC50,[1],0.08 µg/mL
same,IC50,[2]; [5],1.8 µg/mL
same,IC50,[3]; [6],2.2 µg/mL
same,Number of dead/surviving mice,mice; 1500 mg/kg orally once,0/5
same,Number of dead/surviving mice,mice; 2000 mg/kg orally once,0/5
same,Number of dead/surviving mice,mice; 2500 mg/kg orally once,0/5
same,Number of dead/surviving mice,mice; 3000 mg/kg orally once,0/5
same,Number of dead/surviving mice,mice; 4000 mg/kg orally once,4/5
same,Number of dead/surviving mice,mice; 5000 mg/kg orally once,5/5
same,substance concentration up to which all animals survived,mice,3.000 mg/kg
same,tolerability after administering orally once,mice,very tolerable
same,"influence on general state of health, rectal temperature, body weight",mice,Neither the general state of health nor the rectal temperature nor the body weight was influenced
